Results as given in ChEMBL document CHEMBL1201862, “PubChem BioAssay data set” (2004).
Active and inactive are the calls of the source.

Legend:
[1] = PAX2 cell-based inhibition, dose response, selectivity assay for PAX8 inhibitor project, plate reader, dry powder samples (AID 743048); assay type: functional;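 note: HEK293 cells carrying a WT1 promoter luciferase reporter driven by expressed Pax2; potency is for inhibition of Pax2 driven reporter signal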
[2] = target: Paired box protein Pax-8 (Homo sapiens, UniProt Q06710); assay: inhibitors of PAX8-driven TPO luciferase reporter, dose response, RMG-I cells, cherry-pick (AID 687027); assay type: functional, cell-based;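 note: luciferase reporter driven by Pax8 target thyroperoxidase promoter measured by SteadyGlo luminescence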
[3] = cytotoxicity dependent on PAX8, dose response, cell-based, plate reader, dry powder (AID 743049); assay type: functional
[4] = target: Potassium channel subfamily K member 9 (Homo sapiens, UniProt Q9NPC2); assay: TASK3 (KCNK9) channel inhibitors, thallium flux, SAR follow-up, selectivity assay for TASK1 inhibitor project, cell-based, FluxOR thallium flux, concentration-response (AID 652211); assay type: functional;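 note: potency is for inhibitors of the channel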
[5] = target: Potassium channel subfamily K member 3 (Homo sapiens, UniProt O14649); assay: TASK1 (KCNK3) potassium channel inhibitors, SAR follow-up, CHO cells, FluxOR thallium flux (AID 652212); assay type: functional
[6] = target: T1, Streptokinase A (Streptococcus pyogenes serotype M1, UniProt P10520); assay: S. pyogenes streptokinase expression inhibitors, potency, dose response, plasminogen activation absorbance, OD405 (AID 1914); assay type: functional, Streptococcus pyogenes M1 GAS;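 note: secreted streptokinase activity via plasminogen activation per viability signal from cell pellet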
T1 sequence (P10520 whole entry): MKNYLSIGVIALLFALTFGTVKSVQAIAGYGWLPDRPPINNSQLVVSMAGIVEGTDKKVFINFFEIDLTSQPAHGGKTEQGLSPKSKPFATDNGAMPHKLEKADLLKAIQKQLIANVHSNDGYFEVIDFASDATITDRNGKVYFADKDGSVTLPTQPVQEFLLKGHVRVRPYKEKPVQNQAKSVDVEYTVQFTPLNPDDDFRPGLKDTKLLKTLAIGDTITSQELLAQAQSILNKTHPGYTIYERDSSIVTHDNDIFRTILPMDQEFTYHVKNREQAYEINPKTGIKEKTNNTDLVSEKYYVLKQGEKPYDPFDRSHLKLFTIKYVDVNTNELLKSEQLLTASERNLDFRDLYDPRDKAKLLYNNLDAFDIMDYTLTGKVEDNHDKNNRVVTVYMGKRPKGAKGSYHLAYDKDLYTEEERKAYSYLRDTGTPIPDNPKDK

[7] = tested on: H9c2; assay: cells; assay type: functional, cell-based; details: Rattus norvegicus, H9c2, Myocardium;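 note: confirmatory concentration-response retest of ultra-high-throughput screening hits for modulation of myocardial damage; cell death induced by hydrogen peroxide oxidative stress; compound pretreatment for 60 min then peroxide exposure for 2 h; potency is for protecting the cells against peroxide damage rather than for killing them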
[8] = target: T2, Trace amine-associated receptor 1 (Homo sapiens, UniProt Q96RJ0); assay: Counterscreen for antagonists of the human trace amine associated receptor 1 (hTAAR1): Fluorescence-based cell-based high throughput dose response assay to identify TAAR1 Agonists.; assay type: functional
T2 sequence (Q96RJ0 whole entry): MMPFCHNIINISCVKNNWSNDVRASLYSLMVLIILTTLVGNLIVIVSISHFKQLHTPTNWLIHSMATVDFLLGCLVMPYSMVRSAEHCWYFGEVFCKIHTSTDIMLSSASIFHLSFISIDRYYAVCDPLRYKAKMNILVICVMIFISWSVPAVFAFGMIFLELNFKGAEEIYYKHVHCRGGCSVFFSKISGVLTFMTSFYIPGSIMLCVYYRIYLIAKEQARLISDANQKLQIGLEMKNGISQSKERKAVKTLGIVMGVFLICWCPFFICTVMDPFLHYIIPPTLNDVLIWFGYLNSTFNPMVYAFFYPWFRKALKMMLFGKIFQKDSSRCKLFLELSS

[9] = Counterscreen for […] of the human trace amine associated receptor 1 (TAAR1): Fluorescence-based cell-based high throughput dose response assay to identify nonselective Ga16 agonists.; assay type: functional
[10] = Counterscreen for antagonists of the human trace amine associated receptor 1 (hTAAR1): Fluorescence-based cell-based high throughput dose response assay to identify nonselective Ga16 antagonists.; assay type: functional
[11] = target: T2, Trace amine-associated receptor 1; assay: Fluorescence-based cell-based high throughput dose response assay to identify antagonists of the human trace amine associated receptor 1 (TAAR1).; assay type: functional
[12] = tested on: Streptococcus; assay: Group A Streptococcus viability loss, dose response, counter-screen for streptokinase expression inhibitor project, luminescence, BacTiterGlo (AID 1915); assay type: functional, organism-based;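 note: potency for reduction of bacterial viability or growth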
[13] = tested on: Streptococcus sp. 'group A'; assay: growth inhibition of control SK(-) GAS strain, dose response, counter-screen for streptokinase expression inhibitor project, luminescence, kanamycin, BacTiterGlo, confirmation (AID 1900); assay type: functional, organism-based
[14] = Late stage assay provider results from the probe development effort to identify selective inhibitors of heat shock protein 90 (HSP90): Absorbance-based cell proliferation assay in MCF7 cells.; assay type: functional
[15] = Late stage assay provider results from the probe development effort to identify selective inhibitors of heat shock protein 90 (HSP90): Absorbance-based cell proliferation assay in SKBR3 cells.; assay type: functional; details: SK-BR-3
[16] = target: Protein Wnt-3a (Mus musculus, UniProt P27467); assay: SAR analysis of small molecule antagonists of Gli-SUFU in a Wnt3a luminescent reporter assay.; assay type: functional
[17] = HepG2 cell cytotoxicity, dose response, cytotoxicity control, cherry-picks, set 5 (AID 1053118); assay type: functional, cell-based
[18] = inhibitors of fibronectin matrix deposition, dose response, AH1F cells, Alexa488-FN fluorescence, cherry-picks (AID 1035475); assay type: functional, cell-based
[19] = HEK293 cell cytotoxicity, dose response, cytotoxicity control, cherry-picks, set 5 (AID 1053117); assay type: functional, cell-based
[20] = A549 cell cytotoxicity, dose response, cytotoxicity control, cherry-picks, 26 µM top dose (AID 1053119); assay type: functional, cell-based
[21] = microbe, parasite or virus in culture; assay type: functional; details: Mycobacterium tuberculosis
[22] = Shn3 3'UTR reporter inhibitors, dose response, cell-based, Clone20 osteoblasts, firefly luciferase, cherry-picked (AID 624132); assay type: functional;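 note: firefly luciferase luminescence from reporter carrying the Shn3 3'UTR in osteoblasts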
[23] = reduction of Shn3 3'UTR firefly luciferase signal, dose response, Schnurri-3 inhibitor project, cell-based, Clone20 osteoblasts, cherry-pick, set 2 (AID 720490); assay type: functional;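 note: actives lower the luminescence signal as inhibitors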
[24] = target: Kappa-type opioid receptor (Homo sapiens, UniProt P41145); assay: OPRK1 antagonists, late-stage follow-up, cell-based, fluorescence, dose response (AID 652032); assay type: functional
[25] = tested on: HEK293; assay: HEK293T cell cytotoxicity, dose response, cytotoxicity control, ATP luminescence, cherry-pick samples (AID 687005); assay type: functional, cell-based; details: Homo sapiens;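 note: cells exposed to compound for 48 hours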
[26] = HEK293 Cytotoxicity Assay Measured in Cell-Based System Using Plate Reader - 7071-01_Inhibitor_Dose_CherryPick_Activity_Set2.; assay type: functional
[27] = MITF: Counter assay: A375 proliferation Measured in Cell-Based System Using Plate Reader - 2084-03_Inhibitor_Dose_DryPowder_Activity_Set8.; assay type: functional; details: A-375
[28] = MITF Orthogonal Assay: SK-MEL-5 CTG Assay Measured in Cell-Based System Using Plate Reader - 2084-02_Inhibitor_Dose_DryPowder_Activity_Set7.; assay type: functional
[29] = TRPM1 promoter luciferase reporter signal decrease, dose response, MITF inhibitor project, cell-based, SK-MEL-5, dry powder, set 8 (AID 624430); assay type: functional
[30] = target: Mitogen-activated protein kinase 10 (Homo sapiens, UniProt P53779); assay: Dose response biochemical screening assay for inhibitors of c-Jun N-Terminal Kinase 3 (JNK3). [Related pubchem assays: 746 ]
[31] = target: Major prion protein (Homo sapiens, UniProt P04156); assay type: functional, cell-based
[32] = target: T3, Heat shock factor protein 1 (Mus musculus, UniProt P38532); assay: HSF1 potentiators in luciferase reporter cells, confirmation, cell-based, NIH3T3, luminescence, dose retest (AID 435004); assay type: functional;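 note: stress induced by proteasome inhibitor MG132 added 30 min after compound; luciferase reporter driven by HSF1 response element in NIH3T3 cells; actives raise luminescence as potentiators of the MG132 stress response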
T3 sequence (P38532 whole entry): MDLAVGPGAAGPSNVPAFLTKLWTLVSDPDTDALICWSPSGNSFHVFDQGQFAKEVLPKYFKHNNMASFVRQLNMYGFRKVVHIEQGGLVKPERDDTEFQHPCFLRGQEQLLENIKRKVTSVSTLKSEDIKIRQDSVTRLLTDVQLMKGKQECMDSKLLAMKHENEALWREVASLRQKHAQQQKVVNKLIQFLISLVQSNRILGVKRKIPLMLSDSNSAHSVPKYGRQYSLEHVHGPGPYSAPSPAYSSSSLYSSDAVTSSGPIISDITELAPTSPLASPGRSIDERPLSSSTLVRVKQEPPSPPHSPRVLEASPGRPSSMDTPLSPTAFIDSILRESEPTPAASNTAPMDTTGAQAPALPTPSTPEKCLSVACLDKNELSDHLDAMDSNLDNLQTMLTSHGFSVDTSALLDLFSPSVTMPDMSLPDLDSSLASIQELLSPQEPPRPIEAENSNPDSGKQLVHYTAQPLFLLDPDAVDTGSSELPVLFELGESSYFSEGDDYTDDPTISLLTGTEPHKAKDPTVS

[33] = cells
[34] = HepG2 cell cytotoxicity, dose response, cytotoxicity control, luminescence plate reader, powder samples, set 2 (AID 651860); assay type: functional, cell-based
[35] = target: Metabotropic glutamate receptor 3 (Rattus norvegicus, UniProt P31422); assay: mGlu3 NAM potency via calcium readout, dose response, mGlu3 NAM project, TREx293 cells, Galpha15, calcium flux (AID 651840); assay type: functional
[36] = Luminescence-based cell-based high throughput dose response assay to identify activators of the DAF-12 from the parasite S. stercoralis (ssDAF-12).; assay type: functional
[37] = target: Potassium channel subfamily K member 3 (Rattus norvegicus, UniProt O54912); assay: SAR analysis for the identification of selective inhibitors of the two-pore domain potassium channel TASK1(KCNK3):Automated Electrophysiology.; assay type: functional
[38] = target: Endoplasmic reticulum aminopeptidase 1 (Homo sapiens, UniProt Q9NZ08); assay: ERAP1 aminopeptidase inhibitors, dose response, biochemical, cherry-pick, set 2, plate reader (AID 743314)

C[C@H](CO)N1C[C@H](C)[C@@H](CN(C)Cc2ccc(-c3ccccc3)cc2)Oc2ccc(NC(=O)C3CC3)cc2CC1=O
AC50 [1]: > 70 µM (inactive)
AC50 [2]: 26.1 µM (active)
AC50 [3]: > 70 µM (inactive)

CCOc1ccccc1NC(=O)c1cccc(NC(=O)c2ccccc2C)c1
IC50 [4]: 4.29 µM (active)
IC50 [5]: 0.14 µM (active)

COc1cccc(-c2nn(-c3ccccc3)cc2C(=O)Nc2nccs2)c1
EC50 [6]: 35.9 µM (active)
IC50 [7]: 7.3 µM (active)
EC50 [8]: > 29.9 µM (inactive)
EC50 [9]: > 29.9 µM (inactive)
IC50 [10]: > 29.9 µM (inactive)
IC50 [11]: 4.72 µM (active)
EC50 [12]: > 150 µM (not active)
EC50 [13]: 14.9 µM (active)

CC(=O)c1ccc(NC(=O)c2coc(=O)c(Br)c2)cc1
IC50 [14]: 10.7 µM (inactive)
IC50 [15]: 8.4 µM (active)

COc1cc(OC)cc(C(=O)Nc2cc(Nc3cccc(Cl)c3)ncn2)c1
IC50 [16]: > 21.8 µM (inactive)

COc1ccc(S(=O)(=O)N2CCCCC2c2cc(C(=O)Nc3ccc4c(c3)OCO4)no2)cc1 (centres undefined)
AC50 [17]: 15.4 µM (active)
AC50 [18]: 32.6 µM (active)
AC50 [19]: 11.4 µM (active)
AC50 [20]: 23.9 µM (active)

O=C(c1nnc(O)c2ccccc12)N1CCN(C2c3ccccc3-c3ccccc32)CC1
CC50 [21]: > 40 µM (active)
AC50 [22]: 7.69 µM (active)
AC50 [23]: 10.7 µM (active)

COC(=O)c1cc(Br)cnc1N1CCC(Nc2ccccc2)CC1
IC50 [24]: 17.5 µM (inactive)

COc1ccc(S(=O)(=O)N[C@@H]2C=C[C@@H](CC(=O)N3CCC(Cc4ccccc4)CC3)O[C@H]2CO)cc1
AC50 [25]: 19.9 µM (active)
AC50 [26]: 19.9 µM (active)

CN(C1=CC(=O)c2ccccc2C1=O)c1ccccc1
AC50 [27]: > 70 µM (inactive)
AC50 [28]: 2.32 µM (active)
AC50 [29]: 16.2 µM (active)

CCCc1nc(SCC(=O)Nc2cc(C)on2)c2ccccc2n1
IC50 [30]: 83.5 µM (not active)
IC50 [31]: 1.01 µM (active)
EC50 [32]: 31.6 µM (active)
IC50 [33]: > 138 µM (inactive)

O=C(O)[C@H]1CCCC[C@H]1C(=O)N1CCc2ccccc2C1CCN1C(=O)c2ccccc2C1=O (some centres undefined)
AC50 [34]: > 52 µM (inactive)

COc1ccc(C#Cc2ccc(C(=O)N3CC4CCC(O)C4C3)cc2)cc1 (centres undefined)
IC50 [35]: 3.5 µM

COc1ccc(S(=O)(=O)Cc2ccc(C(=O)NCCCN3CCc4ccccc4C3)o2)cc1
IC50 [36]: > 67.5 µM (inactive)

CCOc1ccccc1NC(=O)c1cccc(NC(=O)c2ccc(Cl)cc2)c1
IC50 [37]: 7.24 µM (active)
IC50 [5]: 0.139 µM (active)

C[C@H](CO)N1C[C@H](C)[C@H](CN(C)Cc2ccc(C(=O)O)cc2)Oc2ccc(NC(=O)Nc3cccc4ccccc34)cc2CC1=O
AC50 [38]: 21.1 µM (active)
